Measurements as given in ChEMBL document CHEMBL2331103, “Synthesis of a novel series of 2-alkylthio substituted naphthoquinones as potent acyl-CoA: cholesterol acyltransferase (ACAT) inhibitors” (Eur J Med Chem, 2013).

Molecular target: T1, Sterol O-acyltransferase 1 (Homo sapiens, UniProt P35610)
T1 sequence (P35610 whole entry): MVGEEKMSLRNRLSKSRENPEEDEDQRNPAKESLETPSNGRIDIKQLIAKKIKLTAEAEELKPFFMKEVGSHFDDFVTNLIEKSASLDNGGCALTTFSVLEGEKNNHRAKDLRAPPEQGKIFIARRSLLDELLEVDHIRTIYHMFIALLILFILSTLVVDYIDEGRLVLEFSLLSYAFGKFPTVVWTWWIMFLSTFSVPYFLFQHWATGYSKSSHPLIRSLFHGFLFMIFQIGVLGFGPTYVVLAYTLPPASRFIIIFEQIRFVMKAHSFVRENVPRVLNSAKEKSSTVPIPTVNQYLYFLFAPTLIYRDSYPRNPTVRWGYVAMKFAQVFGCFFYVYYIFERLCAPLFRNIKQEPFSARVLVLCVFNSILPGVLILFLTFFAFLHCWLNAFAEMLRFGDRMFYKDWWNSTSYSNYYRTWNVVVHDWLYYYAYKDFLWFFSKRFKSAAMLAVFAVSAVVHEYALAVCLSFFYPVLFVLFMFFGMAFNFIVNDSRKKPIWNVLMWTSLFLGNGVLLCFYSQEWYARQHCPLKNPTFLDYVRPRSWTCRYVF
Assay: Inhibition of human macrophage ACAT expressed in human HepG2 cells using [14C]oleoyl-CoA as substrate incubated for 20 mins prior to substrate addition measured after 25 mins by liquid scintillation counting analysis
Assay type: cell-based

Row | Compound | IC50 [µM]
1 | CCSC1=CC(=O)c2ccccc2C1=O | 7.51
2 | CCCCCCCCCC[S+]([O-])C1=CC(=O)c2c(OC)ccc(OC)c2C1=O (stereo not given) | 8.4
3 | COc1ccc(OC)c2c1C(=O)C=C(S(C)(=O)=O)C2=O | > 100
4 | CCCCCCCCCCCCCCCS(=O)(=O)C1=CC(=O)c2c(OC)ccc(OC)c2C1=O | 5.8
5 | CCCCCCCCCCCCCCCCCC[S+]([O-])C1=CC(=O)c2c(OC)ccc(OC)c2C1=O (stereo not given) | > 100
6 | CCCCCCCCSC1=CC(=O)c2ccccc2C1=O | 6
7 | CCCCCCCCCCCCCCC[S+]([O-])C1=CC(=O)c2ccccc2C1=O (stereo not given) | 56.6
8 | C[S+]([O-])C1=CC(=O)c2ccccc2C1=O (stereo not given) | 5.66
9 | CCCS(=O)(=O)C1=CC(=O)c2c(OC)ccc(OC)c2C1=O | > 100
10 | CCCCCCCCCCCSC1=CC(=O)c2ccccc2C1=O | 8.67
11 | COc1ccc(OC)c2c1C(=O)C=C([S+](C)[O-])C2=O (stereo not given) | > 100
12 | CCCCSC1=CC(=O)c2ccccc2C1=O | 7.87
13 | CCCCCSC1=CC(=O)c2ccccc2C1=O | 8.19
14 | CCS(=O)(=O)C1=CC(=O)c2c(OC)ccc(OC)c2C1=O | > 100

Now those with a lower IC50, led by results:

Row | IC50 [µM] | Compound
15 | 1.1 | CCCCCCCCCCC[S+]([O-])C1=CC(=O)c2c(OC)ccc(OC)c2C1=O (stereo not given)
16 | 3.4 | CCCCCCCCCCCS(=O)(=O)C1=CC(=O)c2c(OC)ccc(OC)c2C1=O
17 | 3.7 | CC(C)CNC(=O)/C=C/C=C/CCCC/C=C/c1ccc2c(c1)OCO2 [RETROFRACTAMIDE B]
18 | 5.47 | CCCCCCCCC[S+]([O-])C1=CC(=O)c2ccccc2C1=O (stereo not given)
19 | 1.63 | CCCCCCCCCSC1=CC(=O)c2ccccc2C1=O
20 | 1.66 | CCCCCCCCCCCCSC1=CC(=O)c2ccccc2C1=O
21 | 1.45 | CCCCCCCCCCCCCCCCCCSC1=CC(=O)c2ccccc2C1=O
22 | 2.4 | CCCCCCCCCCCC[S+]([O-])C1=CC(=O)c2c(OC)ccc(OC)c2C1=O (stereo not given)
23 | 5.08 | CCCSC1=CC(=O)c2ccccc2C1=O
24 | 2.82 | CSC1=CC(=O)c2ccccc2C1=O
25 | 4.13 | CCCCCCCCCCCCCCCSC1=CC(=O)c2ccccc2C1=O
